Data as given in patent US4201866A, “O-Hemi-succinate of propranolol” (American Home Products Corporation, priority 1977, dated 1980).
Where a name gives a salt, the structure may show the parent alone.

Assay: Oral administration of the compound of Example 6; plasma levels (Example 7)
Format: in vivo
Settings: beagle dogs
Method: In this experiment, four beagle dogs were given an 80 mg. oral dose of propranolol HCl or an equivalent dose of the o-hemi-succinate. The animals were divided into two groups of two, each group receiving the drugs according to a crossover design. The crossover experiment was repeated twice. A period of at least one week elapsed between each dosing day. Blood samples were obtained at regular intervals after dosing a plasma was analyzed for free propranolol concentrations.
The compound of Example 6 was orally administered to beagle dogs in a similar manner as Example 2. Plasma levels of the compound of Example 6 were twice as high as those obtained after an equivalent dose of propranol hydrochloride.

Plasma levels compared with equivalent dose of propranolol hydrochloride: twice as high
Compound: CCOC(=O)CCC(=O)OC(CNC(C)C)COc1cccc2ccccc12 (stereo not shown) [Example 6, Butanedioic acid-1-[(2-(1-methylethyl)amino] -1-[(1-naphtalenyloxy)methyl]diethylether hydrochloride]
